Experimental findings from patent US20080200454A1, “CARBON-LINKED TETRAHYDRO-PYRAZOLO-PYRIDINE MODULATORS OF CATHEPSIN S” (priority 2007, published 2008) are described below.

pIC50: −log10 of the molar value.

In the first experiment the target is Recombinant human cathepsin S (CatS) (Homo sapiens, UniProt P25774). The experiment in a line: Recombinant human cathepsin S (CatS) inhibition assay, fluorogenic substrate Z-Valine-Valine-Arginine-AMC.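 Further: Baculovirus-expressed CatS in pH 5.0 sodium acetate buffer with DTT and NaCl, fluorescence read each minute over 20 min, inhibition derived from rate slope.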
Recombinant human cathepsin S (CatS), sequence (P25774 115-331): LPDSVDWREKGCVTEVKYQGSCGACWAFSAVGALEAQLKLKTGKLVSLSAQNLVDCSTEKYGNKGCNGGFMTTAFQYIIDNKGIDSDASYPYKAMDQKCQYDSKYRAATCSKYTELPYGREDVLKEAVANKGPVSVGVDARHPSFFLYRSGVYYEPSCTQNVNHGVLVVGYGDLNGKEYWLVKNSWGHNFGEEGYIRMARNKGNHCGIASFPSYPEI
Details: not given
In general, pIC50 refers to −log10 of the IC50, conventionally taken in molar units. Regarding `CC(C)(C)OC(=O)N1CCC(C2CCN(C[C@H](O)Cn3nc(-c4ccc(Cl)c(CCc5ccc(Cl)cc5)c4)c4c3CCN(S(C)(=O)=O)C4)CC2)CC1` [Example 245, 1,1-Dimethylethyl 1′-{(2S)-3-[3-{4-chloro-3-[2-(4-chlorophenyl)ethyl]phenyl}-5-(methylsulfonyl)-4,5,6,7-tetrahydro-1H-pyrazolo[4,3-c]pyridin-1-yl]-2-hydroxypropyl}-4,4′-bipiperidine-1-carboxylate], the negative-log IC50 (pIC50) was 7.52.

Turning to `CS(=O)(=O)N1CCc2c(c(-c3ccc(Cl)c(CCc4ccc(Cl)cc4)c3)nn2C[C@@H](O)CN2CCC(C3CCNCC3)CC2)C1` [Example 246, (2S)-1-(4,4′-Bipiperidin-1-yl)-3-[3-{4-chloro-3-[2-(4-chlorophenyl)ethyl]phenyl}-5-(methylsulfonyl)-4,5,6,7-tetrahydro-1H-pyrazolo[4,3-c]pyridin-1-yl]propan-2-ol], the pIC50 was 8.00.

On to `CN1CCC(C2CCN(C[C@H](O)Cn3nc(-c4ccc(Cl)c(CCc5ccc(Cl)cc5)c4)c4c3CCN(S(C)(=O)=O)C4)CC2)CC1` [Example 248, (2S)-1-[3-{4-Chloro-3-[2-(4-chlorophenyl)ethyl]phenyl}-5-(methylsulfonyl)-4,5,6,7-tetrahydro-1H-pyrazolo[4,3-c]pyridin-1-yl]-3-(1′-methyl-4,4′-bipiperidin-1-yl)propan-2-ol], for which the pIC50 was 7.70.

In the case of `NC(=O)C(=O)N1CCc2c(c(-c3ccc(Cl)c(C#Cc4ccc(CNCc5ccc(Cl)cc5)cc4)c3)nn2C[C@@H](O)CN2CCSCC2)C1` [Example 249, (S)-2-[3-(4-Chloro-3-{4-[(4-chloro-benzylamino)-methyl]-phenylethynyl}-phenyl)-1-(2-hydroxy-3-thiomorpholin-4-yl-propyl)-1,4,6,7-tetrahydro-pyrazolo[4,3-c]pyridin-5-yl]-2-oxo-acetamide], the pIC50 was 7.30.

As to `NC(=O)N1CCc2c(c(-c3ccc(Cl)c(C#Cc4ccc(CNCc5ccc(Cl)cc5)cc4)c3)nn2C[C@@H](O)CN2CCSCC2)C1` [Example 251, (S)-3-(4-Chloro-3-{4-[(4-chloro-benzylamino)-methyl]-phenylethynyl}-phenyl)-1-(2-hydroxy-3-thiomorpholin-4-yl-propyl)-1,4,6,7-tetrahydro-pyrazolo[4,3-c]pyridine-5-carboxylic acid amide], the pIC50 is 7.40.

As to `NC(=O)C(=O)N1CCc2c(c(-c3ccc(Cl)c(C#Cc4ccc(CNCc5ccc(Cl)cc5)cc4)c3)nn2C[C@@H](O)CN2CCOCC2)C1` [Example 253, (S)-2-[3-(4-Chloro-3-{4-[(4-chloro-benzylamino)-methyl]-phenylethynyl}-phenyl)-1-(2-hydroxy-3-morpholin-4-yl-propyl)-1,4,6,7-tetrahydro-pyrazolo[4,3-c]pyridin-5-yl]-2-oxo-acetamide], the negative logarithm of the IC50 (pIC50) is 7.22.

In the case of `C[C@H]1COCCN1C[C@H](O)Cn1nc(-c2ccc(Cl)c(C#Cc3ccc(CNCc4ccc(Cl)cc4)cc3)c2)c2c1CCN(C(N)=O)C2` [Example 257, 3-(4-Chloro-3-{4-[(4-chloro-benzylamino)-methyl]-phenylethynyl}-phenyl)-1-[(2S)-2-hydroxy-3-((3S)-3-methyl-morpholin-4-yl)-propyl]-1,4,6,7-tetrahydro-pyrazolo[4,3-c]pyridine-5-carboxylic acid amide], the pIC50 was 7.15.

Consider `NC(=O)N1CCc2c(c(-c3ccc(Cl)c(C#Cc4ccc(CNCc5ccc(Cl)cc5)cc4)c3)nn2C[C@@H](O)CN2CCOCC2)C1` [Example 259, (S)-3-(4-Chloro-3-{4-[(4-chloro-benzylamino)-methyl]-phenylethynyl}-phenyl)-1-(2-hydroxy-3-morpholin-4-yl-propyl)-1,4,6,7-tetrahydro-pyrazolo[4,3-c]pyridine-5-carboxylic acid amide], for which the pIC50 was 7.10.

Take `CS(=O)(=O)N1CCc2c(c(-c3ccc(Cl)c(C#Cc4ccc(CNCc5ccc(Cl)cc5)cc4)c3)nn2C[C@H](O)CN2CCOCC2)C1` [Example 264, (R)-1-[3-(4-Chloro-3-{4-[(4-chloro-benzylamino)-methyl]-phenylethynyl}-phenyl)-5-methanesulfonyl-4,5,6,7-tetrahydro-pyrazolo[4,3-c]pyridin-1-yl]-3-morpholin-4-yl-propan-2-ol]: the pIC50 was 6.43.

With `C[C@H]1COCCN1C[C@H](O)Cn1nc(-c2ccc(Cl)c(C#Cc3ccc(CNCc4ccc(Cl)cc4)cc3)c2)c2c1CCN(S(C)(=O)=O)C2` [Example 265, (2S)-1-[3-(4-Chloro-3-{4-[(4-chloro-benzylamino)-methyl]-phenylethynyl}-phenyl)-5-methanesulfonyl-4,5,6,7-tetrahydro-pyrazolo[4,3-c]pyridin-1-yl]-3-((3S)-3-methyl-morpholin-4-yl)-propan-2-ol], the negative-log IC50 (pIC50) is 6.85.

Take `C[C@H]1COCCN1CCCn1nc(-c2ccc(Cl)c(C#Cc3ccc(Cl)c(CNC[C@@H]4CCCO4)c3)c2)c2c1CCN(C(=O)C(N)=O)C2` [Example 267, 2-{3-[4-Chloro-3-(4-chloro-3-{[((2S)-tetrahydro-furan-2-ylmethyl)-amino]-methyl}-phenylethynyl)-phenyl]-1-[3-((3S)-3-methyl-morpholin-4-yl)-propyl]-1,4,6,7-tetrahydro-pyrazolo[4,3-c]pyridin-5-yl}-2-oxo-acetamide]: the pIC50 was 8.00.

Regarding `C[C@H]1COCCN1CCCn1nc(-c2ccc(Cl)c(C#Cc3ccc(Cl)c(CNC[C@H]4CCCO4)c3)c2)c2c1CCN(C(=O)C(N)=O)C2` [Example 268, 2-{3-[4-Chloro-3-(4-chloro-3-{[((2R)-tetrahydro-furan-2-ylmethyl)-amino]-methyl}-phenylethynyl)-phenyl]-1-[3-((3S)-3-methyl-morpholin-4-yl)-propyl]-1,4,6,7-tetrahydro-pyrazolo[4,3-c]pyridin-5-yl}-2-oxo-acetamide], the pIC50 was 7.70.

Staying with this experiment, now noted: CatS IC50.
On to `CC(=O)N1CCC(C2CCN(C[C@H](O)Cn3nc(-c4ccc(Cl)c(CCc5ccc(Cl)cc5)c4)c4c3CCN(S(C)(=O)=O)C4)CC2)CC1` [Example 247, (2S)-1-(1′-Acetyl-4,4′-bipiperidin-1-yl)-3-[3-{4-chloro-3-[2-(4-chlorophenyl)ethyl]phenyl}-5-(methylsulfonyl)-4,5,6,7-tetrahydro-1H-pyrazolo[4,3-c]pyridin-1-yl]propan-2-ol], for which the pIC50 is 7.15.

Take `NC(=O)C(=O)N1CCc2c(c(-c3ccc(Cl)c(C#Cc4ccc(CNCc5ccc(Cl)cc5)cc4)c3)nn2C[C@H](O)CN2CCSCC2)C1` [Example 250, (R)-2-[3-(4-Chloro-3-{4-[(4-chloro-benzylamino)-methyl]-phenylethynyl}-phenyl)-1-(2-hydroxy-3-thiomorpholin-4-yl-propyl)-1,4,6,7-tetrahydro-pyrazolo[4,3-c]pyridin-5-yl]-2-oxo-acetamide]: the pIC50 was 7.10.

As to `NC(=O)N1CCc2c(c(-c3ccc(Cl)c(C#Cc4ccc(CNCc5ccc(Cl)cc5)cc4)c3)nn2C[C@H](O)CN2CCSCC2)C1` [Example 252, (R)-3-(4-Chloro-3-{4-[(4-chloro-benzylamino)-methyl]-phenylethynyl}-phenyl)-1-(2-hydroxy-3-thiomorpholin-4-yl-propyl)-1,4,6,7-tetrahydro-pyrazolo[4,3-c]pyridine-5-carboxylic acid amide], the pIC50 is 6.96.

In the case of `NC(=O)C(=O)N1CCc2c(c(-c3ccc(Cl)c(C#Cc4ccc(CNCc5ccc(Cl)cc5)cc4)c3)nn2C[C@H](O)CN2CCOCC2)C1` [Example 254, (R)-2-[3-(4-Chloro-3-{4-[(4-chloro-benzylamino)-methyl]-phenylethynyl}-phenyl)-1-(2-hydroxy-3-morpholin-4-yl-propyl)-1,4,6,7-tetrahydro-pyrazolo[4,3-c]pyridin-5-yl]-2-oxo-acetamide], the pIC50 is 6.62.

Take `C[C@H]1COCCN1C[C@H](O)Cn1nc(-c2ccc(Cl)c(C#Cc3ccc(CNCc4ccc(Cl)cc4)cc3)c2)c2c1CCN(C(=O)C(N)=O)C2` [Example 255, 2-{3-(4-Chloro-3-{4-[(4-chloro-benzylamino)-methyl]-phenylethynyl}-phenyl)-1-[(2S)-2-hydroxy-3-((3S)-3-methyl-morpholin-4-yl)-propyl]-1,4,6,7-tetrahydro-pyrazolo[4,3-c]pyridin-5-yl}-2-oxo-acetamide]: the negative logarithm of the IC50 (pIC50) is 7.15.

Take `C[C@H]1COCCN1C[C@@H](O)Cn1nc(-c2ccc(Cl)c(C#Cc3ccc(CNCc4ccc(Cl)cc4)cc3)c2)c2c1CCN(C(=O)C(N)=O)C2` [Example 256, 2-{3-(4-Chloro-3-{4-[(4-chloro-benzylamino)-methyl]-phenylethynyl}-phenyl)-1-[(2R)-2-hydroxy-3-((3S)-3-methyl-morpholin-4-yl)-propyl]-1,4,6,7-tetrahydro-pyrazolo[4,3-c]pyridin-5-yl}-2-oxo-acetamide]: the negative-log IC50 (pIC50) was 7.30.

As for `CS(=O)(=O)N1CCc2c(c(-c3ccc(Cl)c(C#Cc4ccc(CNCc5ccc(Cl)cc5)cc4)c3)nn2C[C@H](O)CN2CCSCC2)C1` [Example 262, (R)-1-[3-(4-Chloro-3-{4-[(4-chloro-benzylamino)-methyl]-phenylethynyl}-phenyl)-5-methanesulfonyl-4,5,6,7-tetrahydro-pyrazolo[4,3-c]pyridin-1-yl]-3-thiomorpholin-4-yl-propan-2-ol], the negative logarithm of the IC50 (pIC50) is 6.92.

In the case of `C[C@H]1COCCN1CCCn1nc(-c2ccc(Cl)c(C#Cc3ccc(Cl)c(CNC4CCCC4)c3)c2)c2c1CCN(C(=O)C(N)=O)C2` [Example 269, (S)-2-{3-[4-Chloro-3-(4-chloro-3-cyclopentylaminomethyl-phenylethynyl)-phenyl]-1-[3-(3-methyl-morpholin-4-yl)-propyl]-1,4,6,7-tetrahydro-pyrazolo[4,3-c]pyridin-5-yl}-2-oxo-acetamide], the pIC50 is 8.00.

For `CCCNCc1cc(C#Cc2cc(-c3nn(CCCN4CCOC[C@@H]4C)c4c3CN(C(=O)C(N)=O)CC4)ccc2Cl)ccc1Cl` [Example 270, (S)-2-{3-[4-Chloro-3-(4-chloro-3-propylaminomethyl-phenylethynyl)-phenyl]-1-[3-(3-methyl-morpholin-4-yl)-propyl]-1,4,6,7-tetrahydro-pyrazolo[4,3-c]pyridin-5-yl}-2-oxo-acetamide], the pIC50 was 7.70.
